Reference: paper PMC9425435, “Antiviral Profiling of C-18- or C-19-Functionalized Semisynthetic Abietane Diterpenoids” (Journal of Natural Products, 2022)

Tests used:
[1] = test system: DENV-2 (Dengue virus type 2); assay: Plaque reduction assay (PFU), DENV-2 in BHK21; type: cell-based; details: DENV-2, BHK21, PFU/well 150 ± 25
[2] = test system: herpes virus type 2 (HHV-2); details: cited from earlier work
[3] = test system: Vero-E6 cells; assay: Cytotoxicity CC100 in Vero-E6 cells (72 h); details: Vero-E6 cells, 72h
[4] = test system: endemic chikungunya virus of Colombian origin; assay: Post-infection stage evaluation assay (plaque), CHIKV
[5] = test system: CHIKV (Chikungunya virus); assay: End-point titration technique (EPTT), viral titer reduction factor, CHIKV in Vero E6; type: cell-based; details: Vero E6, 10TCID50, EPTT
[6] = MTT cytotoxicity assay (CC50); details: chlorocebus sabaeus
[7] = test system: ZIKV (Zika virus); assay: Plaque reduction assay (PFU), ZIKV in Vero E6; type: cell-based
[8] = test system: ZIKV strain (COL345Si); assay: Post-infection stage evaluation assay (plaque), ZIKV COL345Si
[9] = test system: ZIKV/Col; assay: Quantification of intracellular viral genome by qRT-PCR, ZIKV/Col; type: cell-based, Zika virus
[10] = test system: ZIKV/Col; assay: Quantification of infectious viral particles by plaque assay, ZIKV/Col post-treatment; type: cell-based, Zika virus; details: for percentage of infection (infectious viral particles, plaque assay): ZIKV/Col, Vero cells, post-treated, vs untreated control 100%
[11] = test system: Colombian Zika virus strains; assay: Anti-Zika EC50 summarised over Colombian strains (abstract); type: cell-based; details: read-out: EC50 against Colombian Zika virus strains
[12] = test system: DENV-2; details: postinfection stages; cited from earlier work
[13] = test system: BHK-21 cells; assay: Cytotoxicity CC100 in BHK-21 cells (6 days)
[14] = test system: Zika_459148 virus strain; assay: Post-infection stage evaluation assay (plaque), Zika_459148
[15] = test system: ZIKV/Col; assay: Intracellular quantification of viral protein by cell-ELISA, ZIKV/Col; type: cell-based, Zika virus; details: all concentrations evaluated (3.1-25.0 μg/mL)

For CC(C)c1cc2c(cc1O)[C@@]1(C)CCC[C@@](C)(CN3C(=O)c4ccccc4C3=O)[C@@H]1CC2 [Compound 6, 18-(phthalimid-2-yl)ferruginol], the “% inhibition (PFU)” value [1] is listed as 91 ± 7%, the EC50 [2] is listed as 19.2 µM and the “CC100 (100% cytotoxic concentration)” value [3] is listed as greater than 50 µg/mL. The “SI (CC50/EC50)” value ([4]; CHIKV) was 19.6, the EC50 ([4]; Chikungunya virus, read-out: EC50 chikungunya virus) was 9.8 µM and the “Rf (reduction factor of the viral titer)” value [5] was 10^2. For the same compound, the CC50 at 72 h [6] was 192 µM, the CC50 at 144 h [6] was 80.8 µM and the “Nontoxic concentration that showed a higher viral reduction factor, in μM” value ([7]; ZIKV PFU assay, conversion of 3.1 μg/mL) was “ca. 7.2 μM”. For the same compound, the “% inhibition (PFU)” value ([7]; ZIKV, Vero E6, PFU/well 150 ± 25) was 52 ± 13%, the “SI (CC50/EC50)” value ([8]; ZIKV COL345Si, 6 days) was 15 and the EC50 ([8]; Zika virus, 144 h, read-out: EC50 ZIKV strain COL345Si) was 5.3 ± 2.9 µM. For the same compound, the “number of genome copies/mL, percentage of untreated control” value ([9]; 3.1 μg/mL) was 125.9%, the “replication of viral genome” value ([9]; cultures treated with 6.2, 12.5, and 25.0 μg/mL) was “significantly inhibited” and the “percentage of infection (infectious viral particles, plaque assay)” value (“percentage of infection” below) ([10]; 3.1 μg/mL) was 62.7%. For the same compound, the “percentage of infection” value ([10]; 6.2 μg/mL) was 31.3%, the “percentage of infection” value ([10]; 12.5 μg/mL) was 20.9% and the “percentage of infection” value ([10]; 25.0 μg/mL) was 7.0%. For the same compound, the EC50 ([10]; Zika virus, read-out: EC50 ZIKV/Col) was 9.9 µM, the EC50 [11] was 5 to 10 µM and the EC50 [12] was 1.4 µM. The “CC100 (100% cytotoxic concentration)” value [13] was greater than 50 µg/mL, the EC50 ([14]; Zika virus, Vero C1008, 72 h, read-out: EC50 anti-Zika_459148 virus) was 6.3 ± 2.7 µM and the “SI (CC50/EC50)” value ([14]; Zika_459148, 72 h) was 30. The “viral protein production, percentages of infection” value [15] was “below 50%”.
